This is an account of results in ChEMBL document CHEMBL1201862, “PubChem BioAssay data set” (2004).

The source made the active and inactive calls.

As usually defined, the IC50 is the point on the concentration scale where inhibition reaches its midpoint. The CC50 is the concentration giving 50% cytotoxicity.

For experiment [1], the target named is G2/mitotic-specific cyclin-B1 (Homo sapiens, UniProt P14635). Nature of the experiment: Counterscreen assay for inhibitors of Wee1 degradation: dose response cell-based assay to identify inhibitors of cyclin B degradation. [Related pubchem assays: 1410, 1321 ]. Type of experiment: functional. For orientation: A counterscreen serves to expose hits that act by an unwanted route or on another target.
Sequence of G2/mitotic-specific cyclin-B1 (P14635 whole entry): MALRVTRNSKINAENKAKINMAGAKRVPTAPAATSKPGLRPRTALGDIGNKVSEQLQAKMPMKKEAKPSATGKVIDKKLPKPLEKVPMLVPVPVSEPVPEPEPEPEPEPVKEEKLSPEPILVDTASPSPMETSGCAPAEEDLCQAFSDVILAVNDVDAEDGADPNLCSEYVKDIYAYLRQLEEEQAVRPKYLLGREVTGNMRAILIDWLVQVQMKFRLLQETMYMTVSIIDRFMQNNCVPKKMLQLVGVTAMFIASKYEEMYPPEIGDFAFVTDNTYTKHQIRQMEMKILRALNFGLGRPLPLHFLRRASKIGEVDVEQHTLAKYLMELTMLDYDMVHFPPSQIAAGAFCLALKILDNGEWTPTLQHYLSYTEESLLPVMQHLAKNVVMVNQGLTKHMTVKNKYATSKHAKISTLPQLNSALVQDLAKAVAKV

The target of experiment [2] is T1, Oxysterols receptor LXR-beta (Homo sapiens, UniProt P55055).
T1 sequence (P55055 whole entry): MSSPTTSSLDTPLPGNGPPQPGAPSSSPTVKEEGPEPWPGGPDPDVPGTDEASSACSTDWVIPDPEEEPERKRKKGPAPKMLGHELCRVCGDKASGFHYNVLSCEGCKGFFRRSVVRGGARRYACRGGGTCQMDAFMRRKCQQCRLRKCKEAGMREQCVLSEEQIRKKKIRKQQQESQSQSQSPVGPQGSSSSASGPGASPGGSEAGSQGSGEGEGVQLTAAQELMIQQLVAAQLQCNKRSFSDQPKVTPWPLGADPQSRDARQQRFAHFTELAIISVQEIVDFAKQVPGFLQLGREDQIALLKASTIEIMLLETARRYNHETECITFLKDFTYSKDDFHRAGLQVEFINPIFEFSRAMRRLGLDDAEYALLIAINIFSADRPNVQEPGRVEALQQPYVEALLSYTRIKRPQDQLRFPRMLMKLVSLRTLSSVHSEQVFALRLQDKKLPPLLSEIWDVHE
Type of experiment: functional, cell-based.

For experiment [3], the target named is T1, Oxysterols receptor LXR-beta. As to the kind of experiment: LXR agonists, Gal4 luciferase reporter, dose response, counter-screen for ssDAF-12 agonist project, cell-based, luminescence, HEK293, S. stercoralis campaign (AID 720737). Type of experiment: functional. The conditions noted are these: read-out: IC50 (the source's name). In general terms: A reporter such as luciferase makes a cellular process visible.

Experiment [4] is described as follows: cells.
Experiment [5] has as its target Wee1-like protein kinase (Homo sapiens, UniProt P30291). Nature of the experiment: Dose Response Cell-based Assay for Inhibitors of Wee1 Degradation. [Related pubchem assays: 1410, 1321 ]. The format is functional.
Experiment [6] can be described thus: Luminescence-based cell-based high throughput dose response assay to identify activators of the DAF-12 from the parasite S. stercoralis (ssDAF-12). Type of experiment: functional.
The target of experiment [7] is Luciferin 4-monooxygenase (Photinus pyralis, UniProt P08659). Nature of the experiment: In vitro luciferase assay using purified luciferase. [Related pubchem assays: 1299, 1270, 1295, 1375, 1287, 1281, 1293, 1291, 1289, 1280, 465, 1364, 1282, 1372, 1365, 1370, 1367, 1366, 1266, 1373, 1292, 1290, 1302, 1371, 1283, 1271, 1294, 1374, 1368, 1369 ].
Sequence of Luciferin 4-monooxygenase (P08659 whole entry): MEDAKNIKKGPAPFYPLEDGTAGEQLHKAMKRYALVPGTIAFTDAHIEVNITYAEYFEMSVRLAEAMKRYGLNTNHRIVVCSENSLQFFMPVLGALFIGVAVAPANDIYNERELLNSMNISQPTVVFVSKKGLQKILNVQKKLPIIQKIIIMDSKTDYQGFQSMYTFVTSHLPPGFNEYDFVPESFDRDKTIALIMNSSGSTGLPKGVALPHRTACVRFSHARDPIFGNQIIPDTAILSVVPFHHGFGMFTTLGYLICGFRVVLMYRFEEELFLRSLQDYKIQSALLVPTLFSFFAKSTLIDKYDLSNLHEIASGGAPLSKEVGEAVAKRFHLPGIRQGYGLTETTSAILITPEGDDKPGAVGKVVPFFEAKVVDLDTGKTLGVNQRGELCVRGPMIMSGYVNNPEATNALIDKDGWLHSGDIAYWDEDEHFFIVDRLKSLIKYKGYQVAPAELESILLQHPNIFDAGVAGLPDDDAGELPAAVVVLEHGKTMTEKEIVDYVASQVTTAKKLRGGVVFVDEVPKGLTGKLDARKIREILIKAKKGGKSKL
Experiment [8] deals with HEK293. As to the kind of experiment: Cytotoxicity assay in HEK293 cells. [Related pubchem assays (depositor defined):AID1266, AID1269, AID1270, AID1271, AID1280, AID1281, AID1282, AID1283, AID1287, AID1289, AID1290, AID1291, AID1292, AID1293, AID1294, AID1295, AID1299, AID1302, AID1364, AID1365, AID1366, AID1367, AID1369, AID1370, AID1371, AID1372, AID1373, AID1374, AID1375, AID1384 …. Type of experiment: functional, cell-based. The conditions noted are these: Homo sapiens.

The test system of experiment [9] is HEK293. Nature of the experiment: PMA/Ionomycin induced NF-kB luciferase assay in 293- NF-kB-Luc stable cells. [Related pubchem assays: 1299, 1270, 1295, 1375, 1287, 1281, 1293, 1291, 1289, 1280, 465, 1364, 1282, 1372, 1365, 1370, 1367, 1366, 1269, 1373, 1292, 1290, 1302, 1371, 1283, 1271, 1294, 1374, 1368, 1369 ]. The conditions noted are these: Homo sapiens. Type of experiment: functional, cell-based.

For experiment [10], the target named is Procathepsin L (Homo sapiens, UniProt P07711).
Sequence of Procathepsin L (P07711 whole entry): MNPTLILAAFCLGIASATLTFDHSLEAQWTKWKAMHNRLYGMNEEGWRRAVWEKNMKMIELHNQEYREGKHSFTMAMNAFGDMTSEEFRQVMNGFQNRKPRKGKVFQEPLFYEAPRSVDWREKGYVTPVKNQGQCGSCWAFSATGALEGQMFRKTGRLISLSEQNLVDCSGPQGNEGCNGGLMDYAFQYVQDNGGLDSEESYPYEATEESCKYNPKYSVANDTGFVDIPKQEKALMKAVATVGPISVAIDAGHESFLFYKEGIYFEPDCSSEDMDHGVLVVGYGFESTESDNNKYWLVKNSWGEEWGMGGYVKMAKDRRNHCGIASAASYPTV
In experiment [11] the target is Aspartyl aminopeptidase (Plasmodium falciparum 3D7, UniProt Q8I2J3).
Sequence of Aspartyl aminopeptidase (Q8I2J3 whole entry): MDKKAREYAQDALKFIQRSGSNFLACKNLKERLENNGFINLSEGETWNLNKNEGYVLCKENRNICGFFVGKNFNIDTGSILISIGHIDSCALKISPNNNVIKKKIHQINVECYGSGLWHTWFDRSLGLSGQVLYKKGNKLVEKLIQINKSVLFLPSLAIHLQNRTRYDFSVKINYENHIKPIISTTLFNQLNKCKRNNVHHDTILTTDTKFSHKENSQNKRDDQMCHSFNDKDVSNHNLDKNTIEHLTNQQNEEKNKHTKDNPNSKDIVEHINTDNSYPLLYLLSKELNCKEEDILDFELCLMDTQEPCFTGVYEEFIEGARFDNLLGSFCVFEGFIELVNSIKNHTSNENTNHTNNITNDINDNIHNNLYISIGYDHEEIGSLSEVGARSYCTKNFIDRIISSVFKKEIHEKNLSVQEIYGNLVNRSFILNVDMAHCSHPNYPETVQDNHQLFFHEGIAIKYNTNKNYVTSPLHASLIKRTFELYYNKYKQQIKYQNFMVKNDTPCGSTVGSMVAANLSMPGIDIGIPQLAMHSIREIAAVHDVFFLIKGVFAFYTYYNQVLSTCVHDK
Experiment [12] in a line: antiviral protection against BTV-induced cell death – arbovirus, BSR cells, confirmation (AID 1250).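 Also: protection from viral cytopathic effect measured as cell viability by ATP luminescence.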 The format is functional.
Experiment [13] is described as follows: viability of uninfected HEp-2 cells – cell-based, HTS, cytotoxicity control for RSV inhibitor project, dose response (AID 2410). Type of experiment: functional. The note with it: human respiratory syncytial virus.
In experiment [14] the target is Peroxisome proliferator-activated receptor gamma/Nuclear receptor coactivator 3 (Homo sapiens, UniProt P37231). The format is functional.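 Also: agonist potency for raising coactivator recruitment to the receptor.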
The target in experiment [15] is Peroxisome proliferator-activated receptor gamma/Nuclear receptor coactivator 1 (Homo sapiens, UniProt P37231). Type of experiment: functional.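 Also: agonist potency as compounds enhance coactivator SRC-1 recruitment to PPARgamma.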
The target in experiment [16] is Peroxisome proliferator-activated receptor gamma/Nuclear receptor coactivator 2 (Homo sapiens, UniProt P37231). Type of experiment: functional.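 Also: agonist potency for raising coactivator recruitment to the receptor.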
Sequence of Peroxisome proliferator-activated receptor gamma/Nuclear receptor coactivator 2 (P37231 whole entry): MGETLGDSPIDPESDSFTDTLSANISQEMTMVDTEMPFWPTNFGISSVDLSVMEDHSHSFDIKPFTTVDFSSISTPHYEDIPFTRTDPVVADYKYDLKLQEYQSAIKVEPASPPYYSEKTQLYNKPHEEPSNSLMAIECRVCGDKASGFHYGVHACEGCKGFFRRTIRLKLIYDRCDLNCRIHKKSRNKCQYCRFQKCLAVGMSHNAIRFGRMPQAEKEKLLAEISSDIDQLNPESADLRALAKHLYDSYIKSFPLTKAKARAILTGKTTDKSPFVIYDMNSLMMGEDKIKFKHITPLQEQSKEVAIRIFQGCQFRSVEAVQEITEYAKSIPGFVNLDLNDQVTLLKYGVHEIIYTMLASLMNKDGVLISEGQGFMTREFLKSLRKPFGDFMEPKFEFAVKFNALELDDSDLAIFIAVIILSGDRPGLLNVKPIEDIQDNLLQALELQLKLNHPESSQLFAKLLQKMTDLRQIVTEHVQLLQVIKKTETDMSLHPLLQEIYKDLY
Sequence of Peroxisome proliferator-activated receptor gamma/Nuclear receptor coactivator 2 (Q15596 whole entry, further chain): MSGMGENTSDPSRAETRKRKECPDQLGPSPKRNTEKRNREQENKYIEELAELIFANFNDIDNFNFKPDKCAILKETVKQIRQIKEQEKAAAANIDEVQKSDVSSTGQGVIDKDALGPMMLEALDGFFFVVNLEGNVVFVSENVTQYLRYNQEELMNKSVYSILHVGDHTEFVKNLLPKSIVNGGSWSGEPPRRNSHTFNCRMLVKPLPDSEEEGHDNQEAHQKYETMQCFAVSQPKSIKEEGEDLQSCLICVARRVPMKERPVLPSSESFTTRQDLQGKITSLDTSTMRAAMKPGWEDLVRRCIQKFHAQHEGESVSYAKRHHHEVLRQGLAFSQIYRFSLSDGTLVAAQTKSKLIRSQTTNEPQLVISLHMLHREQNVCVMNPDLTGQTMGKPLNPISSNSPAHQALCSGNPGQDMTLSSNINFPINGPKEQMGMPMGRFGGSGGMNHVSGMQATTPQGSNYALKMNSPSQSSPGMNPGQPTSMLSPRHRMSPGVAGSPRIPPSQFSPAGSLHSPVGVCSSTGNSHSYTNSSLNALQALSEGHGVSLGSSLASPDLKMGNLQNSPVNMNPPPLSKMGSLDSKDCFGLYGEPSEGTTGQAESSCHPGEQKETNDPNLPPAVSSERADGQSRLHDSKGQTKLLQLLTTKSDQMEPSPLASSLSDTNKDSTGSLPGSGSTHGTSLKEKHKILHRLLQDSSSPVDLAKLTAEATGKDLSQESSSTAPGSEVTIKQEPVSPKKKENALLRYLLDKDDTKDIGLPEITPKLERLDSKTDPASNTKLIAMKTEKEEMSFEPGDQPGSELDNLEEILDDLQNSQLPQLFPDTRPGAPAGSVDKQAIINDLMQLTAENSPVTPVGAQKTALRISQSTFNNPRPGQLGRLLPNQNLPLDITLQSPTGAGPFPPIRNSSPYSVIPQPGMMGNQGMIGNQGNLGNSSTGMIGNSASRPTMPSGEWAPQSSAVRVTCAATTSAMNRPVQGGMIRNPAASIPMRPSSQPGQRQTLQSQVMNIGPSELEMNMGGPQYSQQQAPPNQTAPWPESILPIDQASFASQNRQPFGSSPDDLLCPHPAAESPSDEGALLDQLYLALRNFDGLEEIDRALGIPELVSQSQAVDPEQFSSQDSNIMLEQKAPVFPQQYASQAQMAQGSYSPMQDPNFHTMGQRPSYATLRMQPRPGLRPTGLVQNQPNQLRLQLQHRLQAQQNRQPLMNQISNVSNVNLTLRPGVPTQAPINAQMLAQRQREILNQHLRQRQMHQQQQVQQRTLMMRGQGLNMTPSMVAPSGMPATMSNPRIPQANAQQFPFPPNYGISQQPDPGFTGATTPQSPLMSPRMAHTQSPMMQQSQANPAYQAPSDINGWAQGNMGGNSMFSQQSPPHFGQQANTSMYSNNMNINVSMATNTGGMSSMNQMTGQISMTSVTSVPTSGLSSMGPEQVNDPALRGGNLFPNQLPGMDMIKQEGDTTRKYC
Experiment [17] has as its target T2, Estrogen receptor (Homo sapiens, UniProt P03372).
T2 sequence (P03372 whole entry): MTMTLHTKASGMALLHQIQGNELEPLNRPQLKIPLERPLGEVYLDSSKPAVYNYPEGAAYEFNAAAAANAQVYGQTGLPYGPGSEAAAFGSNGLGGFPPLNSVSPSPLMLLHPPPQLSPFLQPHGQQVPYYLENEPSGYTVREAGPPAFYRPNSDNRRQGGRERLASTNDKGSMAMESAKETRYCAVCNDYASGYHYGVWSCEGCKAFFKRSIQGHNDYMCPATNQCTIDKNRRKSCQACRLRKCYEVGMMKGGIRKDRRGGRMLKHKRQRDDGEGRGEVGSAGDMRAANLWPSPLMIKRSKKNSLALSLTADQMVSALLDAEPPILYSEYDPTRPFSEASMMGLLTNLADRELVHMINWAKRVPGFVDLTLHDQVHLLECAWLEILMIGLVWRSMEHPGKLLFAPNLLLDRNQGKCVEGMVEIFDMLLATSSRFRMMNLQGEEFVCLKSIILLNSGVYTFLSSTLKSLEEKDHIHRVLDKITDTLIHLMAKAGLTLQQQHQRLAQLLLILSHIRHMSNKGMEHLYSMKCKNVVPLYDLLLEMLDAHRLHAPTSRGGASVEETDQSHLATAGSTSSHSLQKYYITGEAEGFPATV
Nature of the experiment: ERα coactivator recruitment enhancers – biochemical, TR-FRET, ERα LBD, dose response (AID 737).

Experiment [18] can be described thus: M. tuberculosis H37Rv growth inhibitors, H37Rv strain (AID 1626). Type of experiment: functional.

Sequence of Wee1-like protein kinase (P30291 whole entry): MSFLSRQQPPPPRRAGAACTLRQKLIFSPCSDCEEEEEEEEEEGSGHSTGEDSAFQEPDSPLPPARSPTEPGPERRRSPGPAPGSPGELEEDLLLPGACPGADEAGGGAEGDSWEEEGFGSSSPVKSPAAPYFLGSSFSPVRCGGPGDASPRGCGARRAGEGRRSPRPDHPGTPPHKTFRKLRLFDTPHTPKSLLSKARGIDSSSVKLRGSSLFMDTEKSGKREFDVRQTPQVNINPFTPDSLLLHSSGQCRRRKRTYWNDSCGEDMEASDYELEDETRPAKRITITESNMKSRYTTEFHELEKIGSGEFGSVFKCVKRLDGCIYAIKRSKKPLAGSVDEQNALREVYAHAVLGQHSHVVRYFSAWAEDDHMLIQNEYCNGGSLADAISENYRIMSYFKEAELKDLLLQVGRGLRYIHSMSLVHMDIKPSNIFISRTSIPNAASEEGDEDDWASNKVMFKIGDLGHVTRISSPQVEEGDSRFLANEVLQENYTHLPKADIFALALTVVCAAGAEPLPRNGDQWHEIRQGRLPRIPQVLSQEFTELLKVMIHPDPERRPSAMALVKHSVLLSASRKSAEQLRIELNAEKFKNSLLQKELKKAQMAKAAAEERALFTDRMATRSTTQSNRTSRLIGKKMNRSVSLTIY

Consider `CC(=O)Nc1ccc(/C=N/Nc2nc3ccccc3s2)cc1`, for which the EC50 in experiment [1] is > 49.7 µM (not active); in experiment [2], > 67.5 µM (inactive); in experiment [3], > 67.5 µM (inactive); in [4] it was > 67.5 µM (inactive); in [5], > 49.7 µM (not active). In [6], the IC50 is > 67.5 µM (inactive).

Regarding `COc1ccc(/C=N/NC(=O)c2n[nH]c3c2CCC3)cc1O`, the values for the EC50 in experiment [7], in experiment [8] and in experiment [9] were > 8 µM (not active), > 8 µM (inactive) and 4.21 µM (not active), respectively.

Turning to `COc1ccc(Cl)cc1NC(=O)Nn1cnnc1`, the IC50 in experiment [10] is > 59.6 µM (not active); in experiment [11] it was 0.832 µM (active).

As for `COc1ccc(-c2nc(NC(=O)c3nnc(O)c4ccccc34)sc2C)cc1`, in experiment [12], the half-inhibitory concentration (IC50) is > 100 µM (active). In experiment [13], the CC50 was 40.5 µM (active).

Turning to `Cc1cc(=O)[nH]c2c1c(C)nn2C1CCCC1`, the EC50 in [14], in experiment [15] and in experiment [16] was > 79.4 µM (not active) each time.

On to `O=C(Cn1ncc2c(=O)oc3ccccc3c21)Nc1nc2ccccc2s1`, for which the EC50 in experiment [17] was 6.23 µM (active).

On to `O=C(COC(=O)/C=C/c1nc2ccccc2s1)Nc1cccc(Cl)c1Cl`, for which the IC50 in experiment [18] is > 100 µM (active).
